Numbers after ± are expanded uncertainties.
Columns and labels:
[1] = xn = mol fraction of the nth substance listed; settings: x1 = 1; for surface tension liquid-gas: Wilhelmy plate method; for viscosity: 101.3 kPa, Liquid, Concentric cylinders viscometry
[2] = refractive index (Na D-line) (dimensionless); settings: 293.15 K; 101.33 kPa; Liquid; Standard Abbe refractometry
[3] = for surface tension liquid-gas: Wilhelmy plate method; for viscosity: 101.3 kPa, Liquid, Concentric cylinders viscometry

Row | Structure (SMILES) | surface tension liquid-gas ([1]; 298.15 K) [mN/m] | viscosity ([1]; 298.15 K) [mPa·s] | surface tension liquid-gas ([1]; 303.15 K) [mN/m] | viscosity ([1]; 303.15 K) [mPa·s] | surface tension liquid-gas ([1]; 308.15 K) [mN/m] | viscosity ([1]; 308.15 K) [mPa·s] | surface tension liquid-gas ([1]; 313.15 K) [mN/m] | viscosity ([1]; 313.15 K) [mPa·s] | refractive index [2] | surface tension liquid-gas ([3]; 298.15 K) [mN/m] | viscosity ([3]; 298.15 K) [mPa·s] | surface tension liquid-gas ([3]; 303.15 K) [mN/m] | viscosity ([3]; 303.15 K) [mPa·s] | surface tension liquid-gas ([3]; 308.15 K) [mN/m] | viscosity ([3]; 308.15 K) [mPa·s] | surface tension liquid-gas ([3]; 313.15 K) [mN/m] | viscosity ([3]; 313.15 K) [mPa·s]
1 | CN(C)C=O [dimethylformamide] + CCCCCCCCCO | 35.2 ± 0.5 | 0.8162 ± 0.017 | 34.1 ± 0.5 | 0.7678 ± 0.016 | 33 ± 0.5 | 0.7262 ± 0.016 | 32 ± 0.5 | 0.678 ± 0.015 | – | – | – | – | – | – | – | – | –
2 | CN(C)C=O [dimethylformamide] + CCCCCCCCO | 35.2 ± 0.5 | 0.8162 ± 0.017 | 34.1 ± 0.5 | 0.7678 ± 0.016 | 33 ± 0.5 | 0.7262 ± 0.016 | 32 ± 0.5 | 0.678 ± 0.015 | – | – | – | – | – | – | – | – | –
3 | CCCCCCCCCCO [decan-1-ol] | – | – | – | – | – | – | – | – | 1.437 ± 0.001 | 28.35 ± 0.52 | 11.83 ± 0.25 | 27.29 ± 0.52 | 9.754 ± 0.2 | 26.23 ± 0.52 | 8.135 ± 0.17 | 25.17 ± 0.52 | 6.842 ± 0.14
4 | CCCCCCCCO [octan-1-ol] | – | – | – | – | – | – | – | – | 1.429 ± 0.001 | 27.47 ± 0.52 | 7.661 ± 0.16 | 26.42 ± 0.52 | 6.402 ± 0.13 | 25.41 ± 0.52 | 5.425 ± 0.11 | 24.38 ± 0.52 | 4.628 ± 0.097
5 | CCCCCCCCCO [nonan-1-ol] | – | – | – | – | – | – | – | – | 1.433 ± 0.001 | 27.58 ± 0.57 | 9.715 ± 0.22 | 26.53 ± 0.57 | 7.927 ± 0.18 | 25.49 ± 0.56 | 6.664 ± 0.15 | 24.44 ± 0.56 | 5.645 ± 0.13
6 | CN(C)C=O [dimethylformamide] + CCCCCCCCCCO | 35.2 ± 0.5 | 0.8162 ± 0.017 | 34.1 ± 0.5 | 0.7678 ± 0.016 | 33 ± 0.5 | 0.7262 ± 0.016 | 32 ± 0.5 | 0.678 ± 0.015 | – | – | – | – | – | – | – | – | –
7 | CN(C)C=O [dimethylformamide] | – | – | – | – | – | – | – | – | 1.429 ± 0.001 | 35.2 ± 0.5 | 0.8162 ± 0.017 | 34.1 ± 0.5 | 0.7678 ± 0.016 | 33 ± 0.5 | 0.7262 ± 0.016 | 32 ± 0.5 | 0.678 ± 0.015
